# Test system: GUMC-403
# Test: viability at highest tested concentration (max response) relative to DMSO (% of DMSO control); higher = less cytotoxic
# Details: library / dose series: MIPE library, 11-point 1:3 dilution, 48 h
# Summary of the method: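 This value is viability at the highest tested concentration relative to vehicle control. GUMC-403 papilloma cells from a patient, grown by conditional reprogramming, were plated at 700/well in 1536-well plates and given 23 nL of compound by pin tool for 48 h. CellTiter-Glo luminescence on a ViewLux was normalised with vehicle wells at 100% and empty wells at 0%.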
smiles,measurement,setting,value
C[C@H](O)[C@H]1[C@@H]2[C@H](C)C(=C(\N2C1=O)C(O)=O)/S[C@@H]3CN[C@H](CN[S+](N)([O-])=O)C3,viability,top concentration 46.1 µM,120
C#CCN[C@@H]1CCc2ccccc21.CS(=O)(=O)O,viability,top concentration 46.1 µM,89
O=P1(NCCCl)OCCCN1CCCl (stereo not drawn),viability,top concentration 46.1 µM,107
CC[S+](=O)([O-])N1CC(CC#N)(n2cc(-c3ncnc4[nH]ccc34)cn2)C1,viability,top concentration 46.1 µM,144
C[N+](C)([O-])CCNc1ccc(NCC[N+](C)(C)[O-])c2c1C(=O)c1c(O)ccc(O)c1C2=O,viability,top concentration 46.1 µM,104
Cc1ccccc1C(C(=O)NC1CCCCC1)N(C(=O)Cn1ccnc1C)c1cccc(F)c1 (stereo not drawn),viability,top concentration 46.1 µM,120
CC(C)[C@H](N)C(=O)OCCOC[N]1C=NC2=C1\N=C(N)/NC2=O,viability,top concentration 46.1 µM,107
COCCOC(=O)C/1=C(C)/NC/2=C(C1C3=CC=CC(=C3)O)/C(=O)CC(C2)C4=C(OC)C=CC=C4 (stereo not drawn),viability,top concentration 46.1 µM,79.8
COC(=O)C[C@](O)(CCCC(C)(C)O)C(=O)O[C@@H]1C(OC)=CC23CCCN2CCc2cc4c(cc2[C@H]13)OCO4 (stereo partly drawn),viability,top concentration 46.1 µM,140
COc1ccc2c(c1OC)C(=O)O[C@H]2[C@H]1c2c(cc3c(c2OC)OCO3)CCN1C,viability,top concentration 46.1 µM,103
Cc1ccc([S+](=O)([O-])OCC(=O)Nc2ccc(C(=O)O)c(O)c2)cc1,viability,top concentration 46.1 µM,91.4
O=C(O)c1nn(Cc2ccc(Cl)cc2Cl)c2ccccc12,viability,top concentration 46.1 µM,99.7
C[N+]1(C)[C@@H]2CC(OC(=O)C(O)(c3cccs3)c3cccs3)C[C@H]1[C@@H]1O[C@@H]12 (stereo partly drawn),viability,top concentration 46.1 µM,127
Cc1cc(C[S+](=O)([O-])c2ccccc2)cc(OCc2ccc(CN3CCC[C@@H]3CO)cc2)c1,viability,top concentration 46.1 µM,116
COc1ccc(C(=O)c2c(C)n(CCN3CCOCC3)c3ccccc23)cc1,viability,top concentration 46.1 µM,122
CCCCCNC(=N)N/N=C/c1c[nH]c2ccc(OC)cc12,viability,top concentration 46.1 µM,69.6
O=C(O)c1cc(O)c2c(c1)C(=O)c1cccc(O)c1C2=O,viability,top concentration 92.2 µM,110
CC1CCN(c2cc(N3CCN(C)CC3)ccc2NC(=O)c2cc(C#N)c[nH]2)CC1,viability,top concentration 46.1 µM,116
O=C(Nc1cccc(C(F)(F)F)c1)Nc1cc([S+](=O)([O-])NC2CC2)ccc1-c1ccsc1,viability,top concentration 46.1 µM,124
C[S+](=O)([O-])c1cc(F)cc2c3c(n(Cc4ccc(Cl)cc4)c12)[C@@H](CC(=O)O)CC3,viability,top concentration 46.1 µM,128
N#CC1(c2cccc(C(=O)Nc3cc(Oc4ccc5nc(NC(=O)C6CC6)sc5n4)ccc3F)c2Cl)CC1,viability,top concentration 46.1 µM,71.8
CC1SC/2=C(C(O)=O)/C(=O)C3=CC(=C(C=C3N12)N4CCN(CC4)C\C5=C(C)\OC(=O)O5)F (stereo not drawn),viability,top concentration 46.1 µM,112
Cc1ccccc1C(OCCN(C)C)c1ccccc1 (stereo not drawn),viability,top concentration 46.1 µM,127
C[S+](=O)([O-])c1ccc(C(=O)Nc2ccc(Cl)c(-c3ccccn3)c2)c(Cl)c1,viability,top concentration 46.1 µM,100
O=C(c1ccc(OCCN2CCCCC2)cc1)c1c(-c2ccc(O)cc2)sc2cc(O)ccc12,viability,top concentration 46.1 µM,94.4
CC1=C(C)C2=C(S1)[N]3C(=NN=C3[C@H](CC(=O)OC(C)(C)C)/N=C2/C4=CC=C(Cl)C=C4)C,viability,top concentration 46.1 µM,65
C[C@]1(c2nc3c(C(N)=O)cccc3[nH]2)CCCN1,viability,top concentration 46.1 µM,72.9
Cc1ccc(NC(=O)c2ccc(CN3CCN(C)CC3)cc2)cc1Nc1nc(-c2cccnc2)cs1,viability,top concentration 46.1 µM,130
CN(C)CCc1c[nH]c2ccc(Cn3cncn3)cc12,viability,top concentration 46.1 µM,100
CC(NCCc1ccc(O)cc1)C(O)c1ccc(O)cc1 (stereo not drawn),viability,top concentration 46.1 µM,124
O=C(O)CCCCC(CCSCc1ccccc1)SCc1ccccc1 (stereo not drawn),viability,top concentration 46.1 µM,130
CN(C)C(=O)C(CCN1CCC(O)(c2ccc(Cl)cc2)CC1)(c1ccccc1)c1ccccc1,viability,top concentration 46.1 µM,103
O=C1Nc2cc(Br)ccc2/C1=C1/Nc2ccccc2/C1=N\O,viability,top concentration 46.1 µM,31.3
O=[S+]([O-])(c1cccc2cnccc12)N1CCCNCC1,viability,top concentration 46.1 µM,128
Cc1cn2c(-c3cn[nH]c3)cnc2c(Nc2ccc(C(=O)N3CCNCC3)cc2F)n1,viability,top concentration 46.1 µM,60.9
CCc1c(C(=O)C(N)=O)c2c(OCC(=O)O)cccc2n1Cc1ccccc1,viability,top concentration 46.1 µM,103
Cc1cccc(N(C)C(=S)Oc2ccc3ccccc3c2)c1,viability,top concentration 46.1 µM,139
CON(C)C(=O)N1\N=C(/S[C@]1(CCCN)C2=CC=CC=C2)C3=CC(=CC=C3F)F,viability,top concentration 46.1 µM,116
CC1(C)C(N(O)C(=O)Nc2ccc(Cl)cc2)N(c2ccc(Cl)cc2)C(=O)N1CC(=O)N/N=C/C=C/c1ccc([N+](=O)[O-])o1 (stereo not drawn),viability,top concentration 46.1 µM,85.4
CC[C@]1(O)C[C@H]2CN(CCC3=C([NH]C4=C3C=CC=C4)[C@@](C2)(C(=O)OC)C5=CC6=C(C=C5OC)N(C=O)[C@H]7[C@](O)([C@H](OC(C)=O)[C@]8(CC)\C=C/C[N@@]9CC[C@]67[C@H]89)C(=O)OC)C1,viability,top concentration 46.1 µM,105
Cc1cccc2c1CC[C@H](CN1CCC(c3c(Cl)cccc3Cl)CC1)C[C@@H]2O,viability,top concentration 46.1 µM,89
CCN(CC)CCOc1ccc(Cc2ccccc2)cc1,viability,top concentration 46.1 µM,101
O=C(NOCC(O)CO)c1cc(Br)c(F)c(F)c1Nc1ccc(I)cc1F (stereo not drawn),viability,top concentration 46.1 µM,62.8
CC1(C)[C@H](C(=O)O)N2C(=O)C[C@H]2[S+]1(=O)[O-],viability,top concentration 46.1 µM,106
COC1=C(N2CCNC(C)C2)C(=CC3=C1N(\C=C(C(O)=O)/C3=O)C4CC4)F (stereo not drawn),viability,top concentration 46.1 µM,120
O=C(O)C(=O)Nc1cccc(-c2nnn[nH]2)c1,viability,top concentration 46.1 µM,120
CNC(=O)[C@H](CC/1=C/N=C\2/C=C\C\C=C12)NC(=O)[C@H](CC(C)C)CC(=O)NO,viability,top concentration 46.1 µM,66.4
CO/C1=C/C(C)=C\[C@@H](C)[C@@H](O)[C@@H](C)C/C(C)=C\C=C/[C@H](OC)[C@@H]([C@@H](C)[C@@H](O)[C@H](C)[C@@]2(O)C[C@@H](O)[C@H](C)[C@@H](C(C)C)O2)OC1=O,viability,top concentration 46.1 µM,93
CN[C@@H]1[C@@H](O)[C@@H](O[C@@H]2[C@@H](O)[C@H](O[C@H]3O[C@H](CN)[C@@H](O)[C@H](O)[C@H]3O)[C@@H](N)C[C@H]2NC(=O)[C@@H](O)CN)OC[C@]1(C)O,viability,top concentration 46.1 µM,96.8
Cc1c[nH]c(-c2cnc(NCCNc3ccc(C#N)cn3)nc2-c2ccc(Cl)cc2Cl)n1,viability,top concentration 46.1 µM,77.1
CC1=C(/C=C/C(C)=C/C=C/C(C)=C/C=C/C=C(C)/C=C/C=C(C)/C=C/C2=C(C)CCCC2(C)C)C(C)(C)CCC1,viability,top concentration 46.1 µM,113
C\C1=N\N(C(=O)C1)C2=CC=CC=C2,viability,top concentration 46.1 µM,97.2
c1cc(OCCN2CCCCC2)cc(-c2n[nH]c3ccc(-c4nc[nH]n4)cc23)c1,viability,top concentration 46.1 µM,111
Cc1cnc(Nc2cccc(CN3CCOCC3)c2)nc1Nc1cccc([S+](=O)([O-])NC(C)(C)C)c1,viability,top concentration 46.1 µM,101
Cn1c(=O)c2c(ncn2C)n(C)c1=O.O=C(O)CC(O)(CC(=O)O)C(=O)O,viability,top concentration 46.1 µM,98.9
Cc1ccc(C(=O)Nc2cccc(C(F)(F)F)c2)cc1Nc1nc(-c2cccnc2)nc2c1cnn2C,viability,top concentration 46.1 µM,87.4
CCc1cccc2c3c([nH]c12)C(CC)(CC(=O)O)OCC3 (stereo not drawn),viability,top concentration 46.1 µM,132
CCCNC(=O)[C@H]1O[C@@H]1C(=O)N[C@H](C(=O)N1CCC[C@H]1C(=O)OC)C(C)CC (stereo partly drawn),viability,top concentration 46.1 µM,109
C[C@@H](NCc1cc2ccccc2[nH]1)c1cccc2ccccc12,viability,top concentration 46.1 µM,108
CCOC(=O)O[C@]1(C(=O)OCCl)CC[C@H]2[C@@H]3CCC4=CC(=O)C=C[C@]4(C)[C@H]3[C@@H](O)C[C@@]21C,viability,top concentration 46.1 µM,149
O=C([O-])Cc1ccccc1Nc1c(Cl)cccc1Cl,viability,top concentration 46.1 µM,104
C[C@H]1O[C@H]([C@H](O)[C@@H]1O)N2\C=C(F)/C(=O)NC2=O,viability,top concentration 46.1 µM,124
O=C1CCC(N2C(=O)c3ccccc3C2=O)C(=O)N1 (stereo not drawn),viability,top concentration 46.1 µM,92
N#C[C@H](O[C@@H]1O[C@H](CO[C@@H]2O[C@H](CO)[C@@H](O)[C@H](O)[C@H]2O)[C@@H](O)[C@H](O)[C@H]1O)c1ccccc1,viability,top concentration 46.1 µM,98.6
NCC/1=C/NC(=S)N1[C@H]2CCC3=C(F)C=C(F)C=C3C2,viability,top concentration 46.1 µM,95.9
CC[C@H](NC(=O)[C@H](C)NC)C(=O)N1C[C@@H](O)C[C@H]1Cc1c(-c2[nH]c3cc(F)ccc3c2C[C@@H]2C[C@H](O)CN2C(=O)[C@H](CC)NC(=O)[C@H](C)NC)[nH]c2cc(F)ccc12,viability,top concentration 46.1 µM,108
CNc1nc(-c2ccc3c(N)n[nH]c3c2)cc(N2C[C@@H](C(=O)NC3CCCCC3)CC[C@H]2C)n1,viability,top concentration 46.1 µM,87.8
Cc1ccc(C(=O)Nc2ccc([S+](=O)([O-])O)c3cc([S+](=O)([O-])O)cc([S+](=O)([O-])O)c23)cc1NC(=O)c1cccc(NC(=O)Nc2cccc(C(=O)Nc3cc(C(=O)Nc4ccc([S+](=O)([O-])O)c5cc([S+](=O)([O-])O)cc([S+](=O)([O-])O)c45)ccc3C)c2)c1,viability,top concentration 46.1 µM,123
O=C1C(CCC(O)c2ccc(F)cc2)C(c2ccc(O)cc2)N1c1ccc(F)cc1 (stereo not drawn),viability,top concentration 46.1 µM,94.9
COc1cc2nc(N3CCN(C(=O)c4ccco4)CC3)nc(N)c2cc1OC,viability,top concentration 46.1 µM,23.4
NC[C@H]1O[C@H](O[C@H]2[C@H](O)[C@@H](O[C@H]3O[C@H](CO)[C@@H](O)[C@H](N)[C@H]3O)[C@H](N)C[C@@H]2N)[C@H](N)C[C@@H]1O,viability,top concentration 46.1 µM,125
NC\1=N\C(=O)N(\C=C1F)[C@H]2C[C@H](O)[C@@H](CO)O2,viability,top concentration 46.1 µM,108
Cc1ccc(-c2cc(C(F)(F)F)nn2-c2ccc([S+](N)(=O)[O-])cc2)cc1,viability,top concentration 46.1 µM,114
C=C1C(=O)OC(CCCCCCCC)C1C(=O)O (stereo not drawn),viability,top concentration 46.1 µM,121
c1ccc2[nH]c(-c3cscn3)nc2c1,viability,top concentration 46.1 µM,124
O=C1c2c(O)cccc2[C@H]([C@@H]2O[C@H](CO)[C@@H](O)[C@H](O)[C@H]2O)c2cc(CO)cc(O)c21,viability,top concentration 46.1 µM,119
CN\1C(=O)/C(=C(\N=C1N2CCCC[S+]2([O-])=O)C(=O)NCC3=CC=C(F)C=C3)O,viability,top concentration 46.1 µM,121
OC[C@H]1O[C@H](C[C@@H]1O)N2\C=C(F)/C(=O)NC2=O,viability,top concentration 46.1 µM,65.7
